Experimental data as given in patent US12565495B2, “VMAT2 inhibitor and preparation method therefor and application thereof” (Luye Innomind Pharma Shijiazhuang Co., Ltd., priority 2019, dated 2026).

Key:
[1] = biological target: VMAT2 (Rattus norvegicus (Rat), UniProt Q01827); assay: Radioactivity detection of binding to VMAT2 in rats ([3H]DHTBZ binding assay, rat cerebral vesicle membrane); conditions: Table 25
Method: I. Radioactivity Detection of Activity of Compounds Binding to VMAT2 in Rats (Binding assay)
To determine the IC50 and Ki values of the binding of various compounds to VMAT2 in rats and to evaluate the affinity of compounds for VMAT2.
Male Wistar rat, weighing 175±25 g, was selected and the whole brain (without the cerebellum) of the rat was isolated surgically and placed into a pre-chilled sucrose solution (20 mL, 0.32 M) and homogenized by a Teflon pestle homogenizer. […] The supernatant was discarded and the precipitate obtained was placed in ice cold MilliQ water (18 mL, Millipore Corporation, Billerica, MA), incubated for 5 minutes and subjected to osmotic shock to shatter cell membrane. Then osmolarity was restored by addition of HEPES solution (25 mM, 2 mL) and potassium tartrate solution (100 mM, 2 mL). The resulting sample was centrifuged at 20,000 g for 20 min at 4° C. The supernatant was aspirated and MgSO4 solution (1 mM, 20 μL) was added. […] The precipitate was collected and resuspended in ice cold assay buffer (25 mM HEPES, 100 mM potassium tartrate, 5 mM MgSO4, 0.1 mM EDTA and 0.05 mM EGTA, pH 7.5) to obtain a vesicle suspension.
After completion of the incubation, the reaction solution was filtered (bacteria filter and collector, PerkinElmer Life and Analytical Sciences) to a filter plate and subsequently, the filter membrane was washed with 350 μL of ice-cold buffer (25 mM HEPES, 100 mM potassium tartrate, 5 mM MgSO4 and 10 mM NaCl, pH 7.5) five times. The filter plate was dried and had the bottom sealed. 40 μL of scintillation cocktail (MicroScint 20; PerkinElmer Life and Analytical Sciences) was added to each well. Radioactivity on the filter was determined by liquid scintillation spectrometry (TopCount NXT; PerkinElmer Life and Analytical Sciences).
Based on the radioactivity assay results above, IC50 and Ki were calculated. IC50 was calculated by a non-linear, least squares regression analysis using MathIQ™ (ID Business Solutions Ltd., UK). Ki values were calculated using the equation of Cheng and Prusoff (Cheng, Y., Prusoff, W. H., Biochem. Pharmacol. 22:3099-3108, 1973). Ki values were calculated in combination with the IC50 of the test compound and the historical KD in the radioactivity detection method of Eurofins Panlabs company.

[2] = Liver microsome incubation test, rat; conditions: rat liver microsomes 0.5 mg/mL, 1 μM compound, NADPH, 37° C.
[3] = Distribution test in SD rat brain tissue, gavage 12 μmol/kg (brain concentration, brain/plasma ratio); type: in vivo; conditions: SD rats, gavage 12 μmol/kg of compound 21 or VBZ, 2 h post-dose; compound 21 vs VBZ, metabolite compound 11 vs DHTBZ
Method: After the rats were sacrificed, the brain tissues were extracted, washed with normal saline and dried with filter paper. Cerebral vessels were stripped and the remaining brain tissues were weighed and stored at −20° C.

[4] = Liver microsome incubation test, dog; type: in vitro ADME; conditions: dog liver microsomes 0.5 mg/mL, 1 μM compound, NADPH, 37° C.
[5] = Pharmacokinetic test in SD rats, gavage 10 μmol/kg (plasma concentration-time curves); type: in vivo; conditions: male SD rats, FIG. 9
Method: Method of Pharmacokinetic Test in SD Rats:
The dosage of administration was 10 μmol/kg. At 0.25, 0.5, 1, 2, 3, 4, 6, 8 and 12 h post-dose, blood samples (about 0.2 mL/time point/rat) were collected to heparinized tubes.

[6] = Liver microsome incubation test, human; conditions: human liver microsomes 0.5 mg/mL, 1 μM compound, NADPH, 37° C.
[7] = Excipient compatibility test (purity after storage with excipients); type: physicochemical; conditions: for purity change after mixing with excipients: mixed with excipients 1:20, placed open at 60° C. for 5 days
Method: Then the mixture was placed open at 60° C. for 5 days.
Purity detection method: about 35 mg of the sample was weighed precisely and placed in a 25 ml measuring flask. 15 ml of acetonitrile was added to dissolve the sample by ultrasound. Water was used to dilute to a given mark and the mixture was shaken uniformly and used as sample solution to be tested. Determination was carried out based on high performance liquid chromatography, octadecyl silane bonded silica gel was used as the filler (Inerstil ODS-3V, 250 mm×4.6 mm, 5 μm); 10 mmol/L diammonium hydrogen phosphate solution (adjusting the pH value to 6.95±0.05)-acetonitrile (80:20) was used as mobile phase A, acetonitrile was used as mobile phase B, and gradient elution was carried out according to Table 39. The detection wavelength was 282 nm; the column temperature was 35° C.; and the flow rate was 1.0 ml/min. 10 μl of the sample solution to be tested was precisely measured and injected into the liquid chromatograph, and the chromatogram was recorded. Calculation was carried out by the peak area normalization method.

[8] = 11-P4S crystal forms A/D/E suspension competition test; type: physicochemical; conditions: suspension in IPA / IPAc, room temperature to 50° C., 17 hours
Method: Then XRPD was carried out on the solid.

[9] = tested on: SD rat autonomous activity; assay: SD rat autonomous activity model (total movement distance in open field, TopScan); type: in vivo; conditions: SD rats, 0 hr to 1 hr post-dose
Method: SD rat autonomous activity models were used in the study.
• 2.1 Test animals: 32 SD rats, SPF-grade, Male, 5-7 weeks old, weighing: 200-220 g, pre-accustomed for at least 1 week before the test.
Preparation method: An appropriate amount of the medicament was weighed and dissolved with a small amount of DMSO (not more than 1% of the total volume). Then, 20% Solutol was added to obtain the desired medicament concentration and the final concentration of DMSO was <4%.
The rats were put into the detection box, pre-accustomed for 10 min and fasted. Animal grouping and dosing information were detailed in Table 35.
On the day of the test, the animals were accustomed for at least 1 hr in the test room. Rats in each group were given a vehicle or corresponding medicaments, respectively according to the doses in Table 35 in one single gavage and then put into the activity room. […] Rats of a same group should not be put in one same room among the eight activity rooms, and there was at least one rat from the control group in each round of test to prevent mutual interference. At the end of each round of test, the feces were swept out and the activity rooms were cleaned to avoid the influence of irrelevant interfering factors (odor, etc.) on the exercise activities of the rats.
The total movement distances of rats from 2 hr to 3 hr post-dose were recorded and analyzed by using a TopScan monitoring system and the reduction rate (RR) of the total movement distance was calculated, wherein RR=(Control group movement distance-Administration group movement distance)/Control group movement distance*100%.
Test data were expressed as mean±standard error of the mean (MEAN±SEM). Difference between various groups at each time point was compared by using PASW Statistics 18.0 software with one-way analysis of variance (ANOVA).
Animal grouping and dosing information were detailed in […].

[10] = Pharmacokinetic / bioavailability test in SD rats (gavage 5 μmol/kg, intravenous 2 μmol/kg); conditions: male, rat, plasma, 2 umol/kg

VMAT2, sequence (Q01827 whole entry): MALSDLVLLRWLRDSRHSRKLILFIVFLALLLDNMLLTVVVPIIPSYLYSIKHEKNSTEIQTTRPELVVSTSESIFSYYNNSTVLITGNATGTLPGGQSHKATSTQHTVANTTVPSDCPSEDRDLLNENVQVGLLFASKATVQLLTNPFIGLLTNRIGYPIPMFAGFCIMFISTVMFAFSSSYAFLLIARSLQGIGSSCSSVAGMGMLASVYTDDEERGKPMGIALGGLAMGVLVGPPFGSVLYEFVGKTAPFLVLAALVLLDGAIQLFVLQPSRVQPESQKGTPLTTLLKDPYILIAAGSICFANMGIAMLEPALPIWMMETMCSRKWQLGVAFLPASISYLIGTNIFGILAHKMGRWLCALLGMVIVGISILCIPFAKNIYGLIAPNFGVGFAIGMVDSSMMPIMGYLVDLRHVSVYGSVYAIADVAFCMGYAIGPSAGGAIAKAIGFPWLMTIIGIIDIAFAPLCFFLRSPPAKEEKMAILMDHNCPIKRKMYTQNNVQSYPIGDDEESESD

Compound `CCCOc1cc2c(cc1OCC)CCN1CC(CC(C)C)C(O)CC21` (centres unmarked) [Comparative Example 41, reference compound] has an IC50 [1] of 280 nM.
For `CCOc1cc2c(cc1OC)C1CC(O)C(CC(C)C)CN1CC2` (centres unmarked) [Compound 16], the IC50 [1] was 12.9 nM and the “Elimination half-life (t1/2) in liver microsomes” value (“Elimination half-life” below) [2] was “~ (the data showed that the metabolism was stable and the rate of the original compound left was greater than 80% after an incubation of 60 min.)”.
For `COc1cc2c(cc1OCC(F)(F)F)CCN1CC(CC(C)C)C(O)CC21` (centres unmarked) [Compound 11], the “concentration in brain tissue compared to VBZ and DHTBZ” value [3] was “significantly higher”, the “Elimination half-life” value [4] was “~ (the data showed that the metabolism was stable and the rate of the original compound left was greater than 80% after an incubation of 60 min.)” and the “exposure compared to Comparative Example 44 compound and DHTBZ” value [5] was “higher exposure”. For the same compound, the “Elimination half-life” value [2] was “~ (the data showed that the metabolism was stable and the rate of the original compound left was greater than 80% after an incubation of 60 min.)”.
With `COc1cc2c(cc1OCCCF)CCN1CC(CC(C)C)C(O)CC21` (centres unmarked) [Comparative Example 44, reference compound] the “Elimination half-life” value [2] was “~ (the data showed that the metabolism was stable and the rate of the original compound left was greater than 80% after an incubation of 60 min.)”.
In the case of `COc1cc2c(cc1OCC(F)(F)F)CCN1CC(CC(C)C)C(OC(=O)[C@@H](N)C(C)C)CC21` (some centres unmarked) [Compound 21], the “concentration in brain tissue compared to VBZ and DHTBZ” value [3] is reported as “significantly higher”.
In the case of `COc1cc2c(cc1OCC(F)F)CCN1CC(CC(C)C)C(O)CC21` (centres unmarked) [Compound 12], the “Elimination half-life” value [6] is reported as “~ (the data showed that the metabolism was stable and the rate of the original compound left was greater than 80% after an incubation of 60 min.)”, the “Elimination half-life” value [4] is reported as “~ (the data showed that the metabolism was stable and the rate of the original compound left was greater than 80% after an incubation of 60 min.)” and the “Elimination half-life” value [2] is reported as “~ (the data showed that the metabolism was stable and the rate of the original compound left was greater than 80% after an incubation of 60 min.)”.
Compound `COc1cc2c(cc1OCC(F)(F)F)CCN1C[C@@H](CC(C)C)[C@H](O)C[C@H]21.Cc1ccc(S(=O)(=O)O)cc1` [crystal form A of 11-P4S] has a purity ([7]; API alone, 0 d) of 99.70%, a purity ([7]; API alone, high temperature (60° C.), open, 5 d) of 99.69% and a purity ([7]; mixed with MCC 1:20, high temperature (60° C.), open, 5 d) of 99.26%. For the same compound, the “purity change after mixing with excipients” value [7] was “no obvious change”, the purity ([7]; mixed with magnesium stearate 1:20, high temperature (60° C.), open, 5 d) was 99.68% and the purity ([7]; mixed with talc powder 1:20, high temperature (60° C.), open, 5 d) was 99.68%. The “thermodynamic stability of crystal form” value [8] was “most thermodynamically stable crystal form”.
With `COc1cc2c(cc1OCCCC(F)(F)F)CCN1CC(CC(C)C)C(O)CC21` (centres unmarked) [Compound 13] the “Elimination half-life” value [4] was “~ (the data showed that the metabolism was stable and the rate of the original compound left was greater than 80% after an incubation of 60 min.)” and the “Elimination half-life” value [2] was “~ (the data showed that the metabolism was stable and the rate of the original compound left was greater than 80% after an incubation of 60 min.)”.
`COCCCOc1cc2c(cc1OC)C1CC(O)C(CC(C)C)CN1CC2` (centres unmarked) [Compound 17] showed an IC50 [1] of 58 nM.
For `COc1cc2c(cc1OCC(F)(F)F)CCN1C[C@@H](CC(C)C)[C@H](O)C[C@H]21` [Compound 11-P4], the “movement distance (rat autonomous activity)” value (shortened to “movement distance”) ([9]; 1.25 μmol/kg) was 9313±1213 mm, the “movement distance” value ([9]; 2.5 μmol/kg) was 5959±1615 mm and the “movement distance” value ([9]; 5.0 μmol/kg) was 1216±429.9 mm. The “movement distance” value ([9]; 10.0 μmol/kg) was 1355±524.1 mm and the “purity change after mixing with excipients” value [7] was “purity dropped obviously”.
`COc1cc2c(cc1OC)[C@H]1C[C@@H](OC(=O)[C@@H](N)C(C)C)[C@H](CC(C)C)CN1CC2` [VBZ, valbenazine] showed a half-life [10] of 1.67 h.
For `CCCOc1cc2c(cc1OC)C1CC(O)C(CC(C)C)CN1CC2` (centres unmarked) [Compound 20], the IC50 [1] was 4.9 nM.
